Literature values as cited in patent US20210100740A1, “BIO-ADHESIVE DISSOLVING COMPOUNDS AND DEVICE” (Segal Innovations LLC, priority 2019, published 2021).

SMILES: CO[C@@]12[C@H](COC(N)=O)C3=C(C(=O)C(C)=C(N)C3=O)N1C[C@@H]1N[C@@H]12 [mitomycin]
- degradation in acidic solutions and when exposed to light (acidic solutions with a pH of less than 6, exposed to light): rapid degradation
- how long mitomycin lasts (refrigerated between 2° C. and 8° C. without being exposed to light): up to one week
